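Method: 48-hour compound exposure of cells in 96-well plates, five concentrations, linear interpolation of endpoints. At the GI50, growth is halved. TGI denotes the concentration required for complete inhibition of growth.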
tested on: MDA-MB-468 breast; assay: NCI-60 cell line screen, 48 h

| Structure (SMILES) | GI50 [µM] | TGI [µM] |
| --- | --- | --- |
| O=C1/C(=C/c2ccc(Cl)c(Cl)c2)CN(C(=O)C(Cl)Cl)C/C1=C\c1ccc(Cl)c(Cl)c1 | 0.177 | 0.398 |
| COc1cc2c(c(OC)c1OC)-c1ccc(NN(C(=O)c3ccccc3)C(=O)c3ccccc3)c(=O)cc1[C@@H](NC(C)=O)CC2 (tested in a mixture with another compound) | 2.08 | 6.71 |
| CO[C@H]1C[C@@H]2CC[C@@H](C)[C@@](O)(O2)C(=O)C(=O)N2CCCC[C@H]2C(=O)O[C@H]([C@H](C)C[C@@H]2CC[C@@H](OC(=O)C(C)(CO)CO)[C@H](OC)C2)CC(=O)[C@H](C)/C=C(\C)[C@@H](O)[C@@H](OC)C(=O)[C@H](C)C[C@H](C)\C=C/C=C/C=C/1C | 0.00189 | > 10 |
| CCOCC1(COCC)CCC(c2[nH]ncc2CN(C)CCNC)CC1 | 46.6 | > 100 |
| COc1ccc(-c2cc(-c3ccc(Nc4nc(Nc5ccccc5)nc(Nc5ccc(Cl)cc5)n4)cc3)nc(N)n2)cc1 | 10.2 | 34.2 |
| COc1ccc2nc3cc(Cl)ccc3c(NCCCNCCO)c2c1 | 0.454 | 1.89 |
| O=C1NC(=NCc2ccccc2Cl)S/C1=C\c1ccc2ncccc2c1 | 3.61 | > 25 |
| CSC1=NC(=Nc2c(C)cccc2C)C2(CCC(C(C)(C)C)CC2)N1c1ccc(Cl)cc1 (stereo not given) | 4.83 | > 100 |
| C=C1C(=O)O[C@H]2[C@H]1CC/C(COC(=O)c1cc(OC)c(OC)c(OC)c1)=C\CC[C@@]1(C)O[C@@H]21 | 0.344 | 2.02 |
| COc1cc(CNCCCCCCN2C(=O)c3cccc4cccc(c34)C2=O)ccc1O | 2.78 | 9.33 |
| COC1(CC[C@@H](C)COC2OC(CO)C(O)C(O)C2O)O[C@H]2C[C@H]3[C@@H]4CC=C5C[C@@H](OC6OC(CO)C(OC7OC(C)C(O)C(O)C7O)C(O)C6OC6OC(C)C(O)C(O)C6O)CC[C@]5(C)[C@H]4CC[C@]3(C)[C@H]2[C@@H]1C (stereo not given in full) | 1.38 | 3.01 |
| CC(C)(C)c1cc(C(=O)Nc2ccccc2C(=O)NCCN)cc(C(C)(C)C)c1 | 2.01 | 3.59 |
| CN=C(N)c1ccc(N=C(N)c2ccc(-c3ccc(C(N)=Nc4ccc(C(N)=NC)cc4)cc3)cc2)cc1 | 74.4 | > 100 |
| CC1CC2C3CCC4=CC(=O)C=CC4(C)C3(F)C(O)CC2(C)C1(O)C(=O)COP(=O)(O)O (stereo not given) | > 500 | > 500 |
| COc1cc2c(c(OC)c1OC)-c1ccc(SC)c(=O)cc1[C@@H](N)CC2 | 0.0786 | > 100 |
| CCN1CCN(c2nc(C)cc(N(CCCNc3ccnc4cc(Cl)ccc34)Cc3ccc4c(c3)OCO4)n2)CC1 | 1.92 | 4.93 |
| CCOC(=O)[C@@H](C)C[C@H](Cc1ccccc1)NC(=O)c1csc([C@@H](C[C@H](C(C)C)N(C)C(=O)[C@@H](NC(=O)[C@H]2CCCCN2C)C(C)(C)CC)OC(C)=O)n1 | < 0.00167 | – |
| O=C(Nc1ccc(Oc2ccc3nc(NC(=O)c4ccco4)[nH]c3c2)cc1)Nc1cc(C(F)(F)F)ccc1F | 1.37 | 11.5 |
| COc1ccc2c(c1)OC(N)=C(C#N)C2c1cc(OC)c(OC)c(OC)c1 (stereo not given) | 0.0239 | 0.0688 |
| O=C1Nc2ccc(Cl)cc2/C1=C\c1c(-c2ccc(Cl)cc2)nc2sc(C3CC3)nn12 | 6.68 | 21.2 |
| Fc1ccc(-c2cc3nc(C(Cl)Cl)nc(-c4ccc(Cl)cc4)n3n2)cc1 | 1.73 | 4.12 |
| N#CCn1c(=O)c(Oc2ccc(F)cc2F)cc2cnc(NC3CCOCC3)nc21 | > 18.9 | > 25 |
| C#Cc1cccc(Nc2ncnc3cc(NC(=O)CCl)ccc23)c1 | 0.716 | 3.16 |
